Measurements from ChEMBL document CHEMBL1201862, “PubChem BioAssay data set” (2004).
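48-hour exposure; five concentrations; linearly interpolated endpoints. GI50 marks 50% less growth.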 Calls of active or inactive are those of the source. Rule as the data show it: active = GI50 up to about 1.1 µM and inactive = higher.

Columns and labels:
Assay in all cases: NCI anticancer screen, dose series, 48 h
786-0 = test system: 786-0
A498 = test system: A498
A549 = test system: A549
BT-549 = test system: BT-549
CAKI-1 = test system: CAKI-1
CCRF-CEM = test system: CCRF-CEM
COLO 205 = test system: COLO 205
DU-145 = test system: DU-145
EKVX = test system: EKVX
HCC 2998 = test system: HCC 2998
HCT-116 = test system: HCT-116
HCT-15 = test system: HCT-15
HL-60 = test system: HL-60
HT-29 = test system: HT-29
Hs-578T = test system: Hs-578T
IGROV-1 = test system: IGROV-1
K562 = test system: K562
KM12 = test system: KM12
LOX IMVI = test system: LOX IMVI
M14 = test system: M14
MCF7 = test system: MCF7
MDA-MB-231 = test system: MDA-MB-231
MDA-MB-435 = test system: MDA-MB-435
MDA-N = test system: MDA-N
MOLT-4 = test system: MOLT-4
Malme-3M = test system: Malme-3M
NCI-H226 = test system: NCI-H226
NCI-H23 = test system: NCI-H23
NCI-H460 = test system: NCI-H460
NCI-H522 = test system: NCI-H522
NCI/ADR-RES = test system: NCI/ADR-RES
OVCAR-3 = test system: OVCAR-3
OVCAR-4 = test system: OVCAR-4
OVCAR-5 = test system: OVCAR-5
OVCAR-8 = test system: OVCAR-8
PC-3 = test system: PC-3
RPMI-8226 = test system: RPMI-8226
RXF 393 = test system: RXF 393
SF-268 = test system: SF-268
SF-539 = test system: SF-539
SK-MEL-28 = test system: SK-MEL-28
SK-MEL-2 = test system: SK-MEL-2
SK-MEL-5 = test system: SK-MEL-5
SK-OV-3 = test system: SK-OV-3
SN12C = test system: SN12C
SNB-19 = test system: SNB-19
SNB-75 = test system: SNB-75
SR = test system: SR
SW-620 = test system: SW-620
T47D = test system: T47D
TK-10 = test system: TK-10
U-251 = test system: U-251
UACC-257 = test system: UACC-257
UACC-62 = test system: UACC-62
UO-31 = test system: UO-31
ACHN = test system: ACHN
HOP-62 = test system: HOP-62
HOP-92 = test system: HOP-92
SF-295 = test system: SF-295

Cc1ccc(-n2c(O)c(C#N)c3[nH]nc(N)c3c2=O)cc1
GI50 (786-0): > 100 µM (inactive)
GI50 (A498): > 100 µM (inactive)
GI50 (A549): > 100 µM (inactive)
GI50 (BT-549): > 100 µM (inactive)
GI50 (CAKI-1): > 100 µM (inactive)
GI50 (CCRF-CEM): > 100 µM (inactive)
GI50 (COLO 205): > 100 µM (inactive)
GI50 (DU-145): > 100 µM (inactive)
GI50 (EKVX): > 100 µM (inactive)
GI50 (HCC 2998): > 100 µM (inactive)
GI50 (HCT-116): > 100 µM (inactive)
GI50 (HCT-15): > 100 µM
GI50 (HL-60): > 100 µM (inactive)
GI50 (HT-29): > 100 µM (inactive)
GI50 (Hs-578T): > 100 µM (inactive)
GI50 (IGROV-1): > 100 µM (inactive)
GI50 (K562): > 100 µM (inactive)
GI50 (KM12): > 100 µM (inactive)
GI50 (LOX IMVI): > 100 µM (inactive)
GI50 (M14): > 100 µM (inactive)
GI50 (MCF7): > 100 µM (inactive)
GI50 (MDA-MB-231): > 100 µM (inactive)
GI50 (MDA-MB-435): > 100 µM (inactive)
GI50 (MDA-N): > 100 µM (inactive)
GI50 (MOLT-4): > 100 µM (inactive)
GI50 (Malme-3M): > 100 µM (inactive)
GI50 (NCI-H226): > 100 µM (inactive)
GI50 (NCI-H23): > 100 µM (inactive)
GI50 (NCI-H460): > 100 µM (inactive)
GI50 (NCI-H522): > 100 µM (inactive)
GI50 (NCI/ADR-RES): > 100 µM (inactive)
GI50 (OVCAR-3): > 100 µM (inactive)
GI50 (OVCAR-4): > 100 µM (inactive)
GI50 (OVCAR-5): > 100 µM (inactive)
GI50 (OVCAR-8): > 100 µM (inactive)
GI50 (PC-3): > 100 µM (inactive)
GI50 (RPMI-8226): > 100 µM (inactive)
GI50 (RXF 393): > 100 µM (inactive)
GI50 (SF-268): > 100 µM (inactive)
GI50 (SF-539): > 100 µM (inactive)
GI50 (SK-MEL-28): > 100 µM (inactive)
GI50 (SK-MEL-2): > 100 µM (inactive)
GI50 (SK-MEL-5): > 100 µM (inactive)
GI50 (SK-OV-3): > 100 µM (inactive)
GI50 (SN12C): > 100 µM (inactive)
GI50 (SNB-19): > 100 µM (inactive)
GI50 (SNB-75): > 100 µM (inactive)
GI50 (SR): > 100 µM (inactive)
GI50 (SW-620): > 100 µM (inactive)
GI50 (T47D): > 100 µM (inactive)
GI50 (TK-10): > 100 µM (inactive)
GI50 (U-251): > 100 µM (inactive)
GI50 (UACC-257): > 100 µM (inactive)
GI50 (UACC-62): > 100 µM (inactive)
GI50 (UO-31): > 100 µM (inactive)

O=S(=O)(O)c1cc(S(=O)(=O)O)c2c(/N=N/c3ccc(/N=N/c4ccccc4)cc3)c(O)ccc2c1
GI50 (786-0): > 100 µM (inactive)
GI50 (A498): 52.1 µM (inactive)
GI50 (A549): > 100 µM (inactive)
GI50 (ACHN): > 100 µM (inactive)
GI50 (BT-549): > 100 µM (inactive)
GI50 (CAKI-1): > 100 µM (inactive)
GI50 (CCRF-CEM): > 100 µM (inactive)
GI50 (COLO 205): > 100 µM (inactive)
GI50 (DU-145): > 100 µM (inactive)
GI50 (EKVX): > 100 µM (inactive)
GI50 (HCC 2998): > 100 µM (inactive)
GI50 (HCT-116): > 100 µM (inactive)
GI50 (HCT-15): > 100 µM
GI50 (HL-60): > 100 µM (inactive)
GI50 (HOP-62): > 100 µM (inactive)
GI50 (HOP-92): > 100 µM (inactive)
GI50 (HT-29): > 100 µM (inactive)
GI50 (Hs-578T): > 100 µM (inactive)
GI50 (IGROV-1): > 100 µM (inactive)
GI50 (K562): > 100 µM (inactive)
GI50 (KM12): > 100 µM (inactive)
GI50 (M14): > 100 µM (inactive)
GI50 (MCF7): > 100 µM (inactive)
GI50 (MDA-MB-231): > 100 µM (inactive)
GI50 (MDA-MB-435): > 100 µM (inactive)
GI50 (MDA-N): > 100 µM (inactive)
GI50 (MOLT-4): > 100 µM (inactive)
GI50 (Malme-3M): > 100 µM (inactive)
GI50 (NCI-H226): > 100 µM (inactive)
GI50 (NCI-H23): > 100 µM (inactive)
GI50 (NCI-H460): > 100 µM (inactive)
GI50 (NCI-H522): > 100 µM (inactive)
GI50 (NCI/ADR-RES): > 100 µM (inactive)
GI50 (OVCAR-3): > 100 µM (inactive)
GI50 (OVCAR-4): > 100 µM (inactive)
GI50 (OVCAR-5): > 100 µM (inactive)
GI50 (OVCAR-8): > 100 µM (inactive)
GI50 (PC-3): > 100 µM (inactive)
GI50 (RPMI-8226): > 100 µM (inactive)
GI50 (RXF 393): > 100 µM (inactive)
GI50 (SF-268): > 100 µM (inactive)
GI50 (SF-295): > 100 µM (inactive)
GI50 (SF-539): > 100 µM (inactive)
GI50 (SK-MEL-28): > 100 µM (inactive)
GI50 (SK-MEL-2): > 100 µM (inactive)
GI50 (SK-MEL-5): > 100 µM (inactive)
GI50 (SK-OV-3): > 100 µM (inactive)
GI50 (SN12C): > 100 µM (inactive)
GI50 (SNB-19): > 100 µM (inactive)
GI50 (SNB-75): > 100 µM (inactive)
GI50 (SR): > 100 µM (inactive)
GI50 (SW-620): > 100 µM (inactive)
GI50 (T47D): > 100 µM (inactive)
GI50 (TK-10): > 100 µM (inactive)
GI50 (U-251): > 100 µM (inactive)
GI50 (UACC-257): > 100 µM (inactive)
GI50 (UACC-62): > 100 µM (inactive)
GI50 (UO-31): > 100 µM (inactive)
